Patent publication US20130237582A1, “PHARMACEUTICAL COMBINATION OF PACLITAXEL AND A CDK INHIBITOR” (Piramal Enterprises Limited, priority 2010, published 2013)

Assays:
ZR-75-1 = test: Cytotoxicity assay using propidium iodide (PI); assay type: cell-based; conditions: Homo sapiens
Description: (§1) The propidium iodide fluorescence assay (PI) was carried out according to the procedure mentioned in Anticancer Drugs, 1995, 6, 522-32. The assay was developed to characterize the in vitro growth of human tumor cell lines as well as to test the cytotoxic activity of the compounds. Propidium iodide (PI) was used as a dye, which penetrates only damaged cellular membranes. Intercalation complexes are formed by PI with double-stranded DNA, which effect an amplification of the fluorescence. After freezing the cells at −20° C. for 24 h, PI had access to total DNA leading to total cell population counts. Background readings were obtained from cell-free wells containing media and propidium iodide. The human breast cancer cell lines (i.e. […] Control wells were treated with vehicle (DMSO). At the end of the incubation periods, the plates were assayed using PI cytotoxicity assay protocol. Percent cytoxicity was calculated at various drug concentrations and from the graph plotted the IC50 values were determined.

MDA-MB-361 = test: Cytotoxicity assay using propidium iodide (PI); assay type: cell-based; conditions: Homo sapiens
Description: as §1

T47-D = test: Cytotoxicity assay using propidium iodide (PI); assay type: cell-based; conditions: Homo sapiens, T47D
Description: as §1

MDA-MB-435-S = test: Cytotoxicity assay using propidium iodide (PI); assay type: cell-based; conditions: Homo sapiens
Description: as §1

BT-549 = test: Cytotoxicity assay using propidium iodide (PI); assay type: cell-based; conditions: Homo sapiens, 48 h treatment
Description: as §1

HBL-100 = test: Cytotoxicity assay using propidium iodide (PI); assay type: cell-based; conditions: Homo sapiens
Description: as §1

PARP [1] = biological target: T1, PARP (Homo sapiens, UniProt P09874); test: PARP enzyme activity measured by PAR polymers (Western blot), MDA-MB-231; assay type: cell-based; conditions: 1.5 μM and 5 μM, 24 h
T1 construct: endogenous in cells; host or cells: MDA-MB-231; MDA-MB-468
T1 sequence (P09874 2-1014 limits assumed): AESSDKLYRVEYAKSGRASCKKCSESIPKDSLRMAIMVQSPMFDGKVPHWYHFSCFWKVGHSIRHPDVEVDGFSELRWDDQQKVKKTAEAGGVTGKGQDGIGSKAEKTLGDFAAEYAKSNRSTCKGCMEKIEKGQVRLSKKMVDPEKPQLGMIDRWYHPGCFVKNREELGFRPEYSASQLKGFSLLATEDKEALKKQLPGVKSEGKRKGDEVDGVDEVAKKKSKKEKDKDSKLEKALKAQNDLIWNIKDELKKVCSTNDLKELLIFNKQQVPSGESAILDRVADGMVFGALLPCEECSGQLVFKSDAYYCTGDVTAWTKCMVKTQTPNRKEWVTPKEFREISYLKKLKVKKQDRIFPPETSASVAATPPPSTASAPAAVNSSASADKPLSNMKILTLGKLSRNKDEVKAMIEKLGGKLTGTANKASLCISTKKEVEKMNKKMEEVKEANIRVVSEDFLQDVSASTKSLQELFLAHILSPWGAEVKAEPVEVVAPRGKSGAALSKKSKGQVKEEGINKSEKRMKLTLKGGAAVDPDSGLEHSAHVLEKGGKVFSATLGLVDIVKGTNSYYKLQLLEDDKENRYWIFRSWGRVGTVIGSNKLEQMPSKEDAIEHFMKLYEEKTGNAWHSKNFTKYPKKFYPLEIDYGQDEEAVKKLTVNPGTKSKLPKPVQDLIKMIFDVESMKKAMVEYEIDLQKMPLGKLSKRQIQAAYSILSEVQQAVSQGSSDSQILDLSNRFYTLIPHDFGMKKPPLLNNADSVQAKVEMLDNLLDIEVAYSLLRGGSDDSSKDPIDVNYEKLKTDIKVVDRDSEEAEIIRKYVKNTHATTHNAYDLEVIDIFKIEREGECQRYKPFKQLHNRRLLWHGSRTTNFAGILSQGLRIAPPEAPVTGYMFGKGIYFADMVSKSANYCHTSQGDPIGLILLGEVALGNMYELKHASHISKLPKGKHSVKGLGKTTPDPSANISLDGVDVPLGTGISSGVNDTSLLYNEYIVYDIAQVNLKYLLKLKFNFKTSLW
Description: To study PARP enzyme activity, PAR polymer formation was measured. MDA-MB-231 and MDA-MB-468 cells were seeded in RPMI 1460 medium with 10% FCS in […] tissue culture flask and incubated for 24 h. These cells were treated at 1.5 μM and 5 μM of Compound A for 24 h. The cells were harvested (trypsinised) and lysed using lysis buffer. Western blotting (Molecular Cancer Therapeutics, 2007, 6, 918-925) was done with specific antibody to PAR.
(§2) Correlation of PARP activity and cell cycle proteins cyclin D1, total Rb and pRb 780 were studied in two TNBC cell lines viz. MDA-MB-468 and MDA-MB-231. MDA-MB-231 and MDA-MB-468 cells were seeded in RPMI 1460 medium with 10% FCS in […] tissue culture flask and incubated for 24 h. These cells were treated at 1.5 μM and 5 μM Compound A for 24 h. The cells were harvested (trypsinised) and lysed using lysis buffer. Western blotting was carried out (Molecular Cancer […], 2007, 6, 918-925) using specific antibody to PAR, PARP, cyclin D1, CDK4 and pRb Ser 780.

MDA-MB-468 = test: Cell cycle progression and apoptosis by flow cytometry (sub-G1); assay type: cell-based, human
Description: (§3) Before analysis, cells were washed twice with PBS to remove the fixative and re-suspended in PBS containing 50 μg/mL propidium iodide and 50 μg/mL RNaseA. After incubation at room temperature (20-35° C.) for 20 min, cells were analyzed using flow cytometry. A Becton Dickinson FACS Calibur flow cytometer (BD, USA) was used for these studies. The argon ion laser set at 488 nm was used as an excitation source. Cells with DNA content between 2n and 4n were designated as being in G1, S and G2/M phases of the cell cycle, as defined by the level of red fluorescence. […] The number of cells in each cell cycle compartment was expressed as a percentage of the total number of cells present. The results are shown in Table 3 and graphically presented in FIG. 3A (MCF-7 cell lines) and FIG. 3B (MDA-MB-231 cell lines).
(§4) Comparison of the effect of Compound A and PARP inhibitor BSI-201 (Iniparib developed by Sanofi-Aventis. BSI-201 is prepared in-house) on cell cycle progression and apoptosis was evaluated in two TNBC cell lines. The asynchronous human TNBC cell lines MDA-MB-231 and MDA-MB-468 were seeded in […] tissue culture flask at a density of 0.5×10^6 cells per flask in RPMI 1460 with 10% FCS. After 24 h, cells were treated either with 1.5 and 3.0 μM of Compound A or 50 μM of PARP inhibitor BSI-201 for 72 h. After the incubation cells were harvested (trypsinised) and processed as given in example 6.

MDA-MB-231 = test: as above; assay type: cell-based, human; conditions: for % Apoptosis: 4.5 μM
Description: Time dependent effect of Compound A on cell cycle progression and apoptosis was evaluated in two breast cancer cell lines. The asynchronous human breast cancer cell lines MCF-7 (Her low, ER+, PR+, BRCA+/−allelic loss) and MDA-MB-231 cells were seeded in […] tissue culture flask at a density of 0.5×10^6 cells per flask in RPMI 1460 with 10% FCS. After 24 h, cells were treated with 4.5 μM of Compound A for 0, 24, 48 and 72 h. Both detached and adherent cells were harvested (trypsinised) at different time points as mentioned in Table 3. After washing in phosphate buffered saline (PBS), cells were fixed in ice-cold 70% ethanol and stored at −20° C. until further analysis.
as §3, §4

PARP [2] = test: Western blot for PARP cleavage in MDA-MB-468; assay type: cell-based, human; conditions: 1.5 μM and 5 μM, 24 h
Description: as §2

PARP enzyme activity (PAR polymer formation) (PARP [1]): inhibits PARP enzyme activity
Structure (SMILES): CN1CC[C@@H](c2c(O)cc(O)c3c(=O)cc(-c4ccccc4Cl)oc23)[C@@H]1CO.Cl [Compound A, (+)-trans-2-(2-Chloro-phenyl)-5,7-dihydroxy-8-(2-hydroxymethyl-1-methyl-pyrrolidin-3-yl)-chromen-4-one hydrochloride]
IC50 (ZR-75-1): 900 nM
IC50 (MDA-MB-361): 750 nM
IC50 (T47-D): 500 nM
IC50 (MDA-MB-435-S): 300 nM
IC50 (BT-549): 800 nM
IC50 (HBL-100): 510 nM
% apoptosis at 72 h (MDA-MB-468; 1.5 μM): 36.09%
% apoptosis at 72 h (MDA-MB-468; 3 μM): 62.5%
% apoptosis at 72 h (MDA-MB-231; 1.5 μM, 72 h): 27.45%
% apoptosis at 72 h (MDA-MB-231; 3 μM, 72 h): 41.53%
% Apoptosis (MDA-MB-231; 0 h): 1%
% Apoptosis (MDA-MB-231; 24 h): 45%
% Apoptosis (MDA-MB-231; 48 h): 85%
% Apoptosis (MDA-MB-231; 72 h): 85%
PARP cleavage (PARP [2]): PARP cleavage was prominent
